Laboratory results from ChEMBL document CHEMBL4257522, “Synthesis and preliminary anti-inflammatory and anti-bacterial evaluation of some diflunisal aza-analogs” (Medchemcomm, 2018).
Activity calls are given as the source filed them.

Experiments:
[1] = system: Macrophage cell line; assay: Cytotoxicity against human PBMC-differentiated macrophages treated for 24 hrs followed by compound washout and measured after 48 hrs by MTT assay; assay type: cell-based
[2] = system: Macrophage cell line; assay: Antiinflammatory activity in human PBMC-differentiated macrophages assessed as inhibition of LPS-induced IL-8 production at 0.01 to 10 uM measured after 24 hrs by ELISA; assay type: functional, cell-based
[3] = system: Macrophage cell line; assay: Induction of TNFalpha production in human PBMC-differentiated macrophages after 24 hrs by ELISA; assay type: cell-based
[4] = system: Macrophage cell line; assay: Induction of IL-1beta production in human PBMC-differentiated macrophages after 24 hrs by ELISA; assay type: cell-based
[5] = system: Macrophage cell line; assay: Induction of prostaglandin production in human PBMC-differentiated macrophages after 24 hrs by ELISA; assay type: cell-based
[6] = system: Staphylococcus aureus; assay: Toxicity in Staphylococcus aureus ATCC 33592 up to 32 uM measured after 16 hrs; assay type: organism-based
[7] = system: Klebsiella pneumoniae; assay: Toxicity in Klebsiella pneumoniae ATCC 13883 up to 32 uM measured after 16 hrs; assay type: organism-based
[8] = system: Enterococcus faecium; assay: Toxicity in Enterococcus faecium ATCC 700221 up to 32 uM measured after 16 hrs; assay type: organism-based; conditions: in vitro
[9] = system: Pseudomonas aeruginosa; assay: Toxicity in Pseudomonas aeruginosa ATCC BAA-2108 up to 32 uM measured after 16 hrs; assay type: organism-based; conditions: in vitro
[10] = system: Escherichia coli; assay: Toxicity in Escherichia coli ATCC 43894 up to 32 uM measured after 16 hrs; assay type: organism-based
[11] = system: Staphylococcus aureus; assay: Potentiation of methicillin-induced antibacterial activity against Staphylococcus aureus ATCC 33592 assessed as minimum modulatory concentration up to 32 uM measured after 16 hrs in presence of MIC/4 methicillin; assay type: functional; conditions: ATCC 33592, 16 h, read-out: MEC
[12] = system: Staphylococcus aureus; assay: Potentiation of geneticin-induced antibacterial activity against Staphylococcus aureus ATCC 33592 assessed as minimum modulatory concentration up to 32 uM measured after 16 hrs in presence of MIC/4 geneticin; assay type: functional; conditions: ATCC 33592, 16 h, read-out: MEC
[13] = system: Staphylococcus aureus; assay: Potentiation of ciprofloxacin-induced antibacterial activity against Staphylococcus aureus ATCC 33592 assessed as minimum modulatory concentration up to 32 uM measured after 16 hrs in presence of MIC/4 ciprofloxacin; assay type: functional; conditions: ATCC 33592, 16 h, read-out: MEC
[14] = system: Staphylococcus aureus; assay: Potentiation of tetracycline-induced antibacterial activity against Staphylococcus aureus ATCC 33592 assessed as minimum modulatory concentration up to 32 uM measured after 16 hrs in presence of MIC/4 tetracycline; assay type: functional; conditions: ATCC 33592, 16 h, read-out: MEC
[15] = system: Staphylococcus aureus; assay: Potentiation of erythromycin-induced antibacterial activity against Staphylococcus aureus ATCC 33592 assessed as minimum modulatory concentration up to 32 uM measured after 16 hrs in presence of MIC/4 erythromycin; assay type: functional; conditions: ATCC 33592, 16 h, read-out: MEC
[16] = system: Streptococcus pyogenes; assay: Potentiation of methicillin-induced antibacterial activity against Streptococcus pyogenes ATCC 14289 assessed as minimum modulatory concentration up to 32 uM measured after 16 hrs in presence of MIC/4 methicillin; assay type: functional; conditions: ATCC 14289, 16 h, read-out: MEC
[17] = system: Streptococcus pyogenes; assay: Potentiation of geneticin-induced antibacterial activity against Streptococcus pyogenes ATCC 14289 assessed as minimum modulatory concentration up to 32 uM measured after 16 hrs in presence of MIC/4 geneticin; assay type: functional; conditions: ATCC 14289, 16 h, read-out: MEC
[18] = system: Streptococcus pyogenes; assay: Potentiation of ciprofloxacin-induced antibacterial activity against Streptococcus pyogenes ATCC 14289 assessed as minimum modulatory concentration up to 32 uM measured after 16 hrs in presence of MIC/4 ciprofloxacin; assay type: functional; conditions: ATCC 14289, 16 h, read-out: MEC
[19] = system: Streptococcus pyogenes; assay: Potentiation of tetracycline-induced antibacterial activity against Streptococcus pyogenes ATCC 14289 assessed as minimum modulatory concentration up to 32 uM measured after 16 hrs in presence of MIC/4 tetracycline; assay type: functional; conditions: ATCC 14289, 16 h, read-out: MEC
[20] = system: Streptococcus pyogenes; assay: Potentiation of erythromycin-induced antibacterial activity against Streptococcus pyogenes ATCC 14289 assessed as minimum modulatory concentration up to 32 uM measured after 16 hrs in presence of MIC/4 erythromycin; assay type: functional; conditions: ATCC 14289, 16 h, read-out: MEC
[21] = system: Klebsiella pneumoniae; assay: Potentiation of methicillin-induced antibacterial activity against Klebsiella pneumoniae ATCC 13883 assessed as minimum modulatory concentration up to 32 uM measured after 16 hrs in presence of MIC/4 methicillin; assay type: functional; conditions: ATCC 13883, 16 h, read-out: MEC
[22] = system: Klebsiella pneumoniae; assay: Potentiation of geneticin-induced antibacterial activity against Klebsiella pneumoniae ATCC 13883 assessed as minimum modulatory concentration up to 32 uM measured after 16 hrs in presence of MIC/4 geneticin; assay type: functional; conditions: ATCC 13883, 16 h, read-out: MEC
[23] = system: Klebsiella pneumoniae; assay: Potentiation of erythromycin-induced antibacterial activity against Klebsiella pneumoniae ATCC 13883 assessed as minimum modulatory concentration up to 32 uM measured after 16 hrs in presence of MIC/4 erythromycin; assay type: functional; conditions: ATCC 13883, 16 h, read-out: MEC
[24] = system: Enterococcus faecium; assay: Potentiation of methicillin-induced antibacterial activity against Enterococcus faecium ATCC 700221 assessed as minimum modulatory concentration up to 32 uM measured after 16 hrs in presence of MIC/4 methicillin; assay type: functional; conditions: ATCC 700221, 16 h, read-out: MEC
[25] = system: Enterococcus faecium; assay: Potentiation of geneticin-induced antibacterial activity against Enterococcus faecium ATCC 700221 assessed as minimum modulatory concentration up to 32 uM measured after 16 hrs in presence of MIC/4 geneticin; assay type: functional; conditions: ATCC 700221, 16 h, read-out: MEC
[26] = system: Enterococcus faecium; assay: Potentiation of ciprofloxacin-induced antibacterial activity against Enterococcus faecium ATCC 700221 assessed as minimum modulatory concentration up to 32 uM measured after 16 hrs in presence of MIC/4 ciprofloxacin; assay type: functional; conditions: ATCC 700221, 16 h, read-out: MEC
[27] = system: Enterococcus faecium; assay: Potentiation of tetracycline-induced antibacterial activity against Enterococcus faecium ATCC 700221 assessed as minimum modulatory concentration up to 32 uM measured after 16 hrs in presence of MIC/4 tetracycline; assay type: functional; conditions: ATCC 700221, 16 h, read-out: MEC
[28] = system: Enterococcus faecium; assay: Potentiation of erythromycin-induced antibacterial activity against Enterococcus faecium ATCC 700221 assessed as minimum modulatory concentration up to 32 uM measured after 16 hrs in presence of MIC/4 erythromycin; assay type: functional; conditions: ATCC 700221, 16 h, read-out: MEC
[29] = system: Pseudomonas aeruginosa; assay: Potentiation of ciprofloxacin-induced antibacterial activity against Pseudomonas aeruginosa ATCC BAA-2108 assessed as minimum modulatory concentration up to 32 uM measured after 16 hrs in presence of MIC/4 ciprofloxacin; assay type: functional; conditions: ATCC BAA-2108, 16 h, read-out: MEC
[30] = system: Pseudomonas aeruginosa; assay: Potentiation of tetracycline-induced antibacterial activity against Pseudomonas aeruginosa ATCC BAA-2108 assessed as minimum modulatory concentration up to 32 uM measured after 16 hrs in presence of MIC/4 tetracycline; assay type: functional; conditions: ATCC BAA-2108, 16 h, read-out: MEC
[31] = system: Pseudomonas aeruginosa; assay: Potentiation of erythromycin-induced antibacterial activity against Pseudomonas aeruginosa ATCC BAA-2108 assessed as minimum modulatory concentration up to 32 uM measured after 16 hrs in presence of MIC/4 erythromycin; assay type: functional; conditions: ATCC BAA-2108, 16 h, read-out: MEC
[32] = system: Escherichia coli; assay: Potentiation of geneticin-induced antibacterial activity against Escherichia coli ATCC 43894 assessed as minimum modulatory concentration up to 32 uM measured after 16 hrs in presence of MIC/4 geneticin; assay type: functional; conditions: ATCC 43894, 16 h, read-out: MEC
[33] = system: Escherichia coli; assay: Potentiation of ciprofloxacin-induced antibacterial activity against Escherichia coli ATCC 43894 assessed as minimum modulatory concentration up to 32 uM measured after 16 hrs in presence of MIC/4 ciprofloxacin; assay type: functional; conditions: ATCC 43894, 16 h, read-out: MEC
[34] = system: Escherichia coli; assay: Potentiation of erythromycin-induced antibacterial activity against Escherichia coli ATCC 43894 assessed as minimum modulatory concentration up to 32 uM measured after 16 hrs in presence of MIC/4 erythromycin; assay type: functional; conditions: ATCC 43894, 16 h, read-out: MEC

O=C(O)c1cnc(-c2ccccc2)c(O)c1
1 µM: minimal effective concentration [16] | minimal effective concentration [27]
inactive: inhibition [2]
> 100 µM: IC50 [1]
2 µM: minimal effective concentration [12] | minimal effective concentration [15]
0.5 µM: minimal effective concentration [11] | minimal effective concentration [24]
0.25 µM: minimal effective concentration [14]
> 32 µM: minimal effective concentration [13] | minimal effective concentration [18] | minimal effective concentration [21] | minimal effective concentration [22] | minimal effective concentration [23] | minimal effective concentration [26] | minimal effective concentration [30] | minimal effective concentration [32] | minimal effective concentration [33] | minimal effective concentration [34]
4 µM: minimal effective concentration [19] | minimal effective concentration [20] | minimal effective concentration [28] | minimal effective concentration [29] | minimal effective concentration [31]
Non-Toxic: Activity [3] | Activity [4] | Activity [5] | Activity [6] | Activity [7] | Activity [8] | Activity [9] | Activity [10]
8 µM: minimal effective concentration [17] | minimal effective concentration [25]

Cc1nc(-c2ccccc2)c(O)cc1C(=O)O
1 µM: minimal effective concentration [27]
2 µM: minimal effective concentration [17]
8 µM: minimal effective concentration [25]
16 µM: minimal effective concentration [13]
> 32 µM: minimal effective concentration [18] | minimal effective concentration [21] | minimal effective concentration [22] | minimal effective concentration [23] | minimal effective concentration [26] | minimal effective concentration [30] | minimal effective concentration [32] | minimal effective concentration [33] | minimal effective concentration [34]
0.5 µM: minimal effective concentration [11] | minimal effective concentration [24]
Non-Toxic: Activity [3] | Activity [4] | Activity [5] | Activity [6] | Activity [7] | Activity [8] | Activity [9] | Activity [10]
97.4 µM: IC50 [1]
inactive: inhibition [2]
4 µM: minimal effective concentration [12] | minimal effective concentration [14] | minimal effective concentration [15] | minimal effective concentration [16] | minimal effective concentration [19] | minimal effective concentration [20] | minimal effective concentration [28] | minimal effective concentration [29] | minimal effective concentration [31]
